Numbered stars: 1 amine (or outer) side, 2 acyl side, 3 side chain; on linkers, the order of the positions; unused ones are H or OH. Bridge positions count the residues as written; N and C are the ends. Square brackets hold non-standard residues; d marks the D form. Peptide text beside a SMILES is read from it. X4 = O=C([C@H](CCCCNCc1ccccc1)N[*:1])[*:2]; sY = N[C@@H](Cc1ccc(OS(=O)(=O)O)cc1)C(=O)O; X3 = O=C([C@H](CCNCc1ccccc1)N[*:1])[*:2]; X2 = O=C([C@H](CNCc1ccccc1)N[*:1])[*:2]; Dap = NC[C@H](N)C(=O)O; βAla = NCCC(=O)O

One test deals with T1, Cholecystokinin receptor type A (Homo sapiens, UniProt P32238).
T1 sequence (P32238 whole entry): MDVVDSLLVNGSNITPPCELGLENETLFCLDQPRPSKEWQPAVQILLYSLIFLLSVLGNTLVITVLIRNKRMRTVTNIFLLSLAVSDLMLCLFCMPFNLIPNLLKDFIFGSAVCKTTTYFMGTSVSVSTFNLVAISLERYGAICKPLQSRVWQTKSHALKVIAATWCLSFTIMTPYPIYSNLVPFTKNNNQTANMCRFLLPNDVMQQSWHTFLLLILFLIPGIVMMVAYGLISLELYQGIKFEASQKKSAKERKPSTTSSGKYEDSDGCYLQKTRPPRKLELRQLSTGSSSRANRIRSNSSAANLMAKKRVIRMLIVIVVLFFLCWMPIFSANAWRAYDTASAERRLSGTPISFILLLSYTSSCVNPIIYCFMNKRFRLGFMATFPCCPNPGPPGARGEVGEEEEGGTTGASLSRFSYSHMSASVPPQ
Nature of the test: Displacement of [111In]DTPA-Glu-Gly-[Tyr27(SO3H)]-CCK8 from human CCK1 receptor expressed in A431 cells. Format: cell-based, A-431.
Conditions: not given
Broadly, the IC50 is the concentration that inhibits the measured activity by half. In turn, `CSCC[C@@H]1NC(=O)[C@H](Cc2c[nH]c3ccccc23)NC(=O)[C@@H](NC(=O)[C@H](CCSC)NC(=O)[C@H](Cc2ccc(OS(=O)(=O)O)cc2)NC(=O)[C@@H](N)CC(=O)O)CNC(=O)CCNC(=O)[C@H](Cc2ccccc2)NC(=O)[C@H](CC(=O)O)NC1=O` (H-D[sY]M[Dap]WMDF[βAla]; lactam 4-C) came in with an IC50 of 26.7 µM.

`CSCC[C@@H]1NC(=O)[C@H](Cc2c[nH]c3ccccc23)NC(=O)[C@@H](NC(=O)[C@H](CCSC)NC(=O)[C@H](Cc2ccc(OS(=O)(=O)O)cc2)NC(=O)[C@@H](N)CC(=O)O)CNC(=O)CNC(=O)[C@H](Cc2ccccc2)NC(=O)[C@H](CC(=O)O)NC1=O` (H-D[sY]M[Dap]WMDFG; lactam 4-C) had an IC50 of 26.3 µM.

In turn, `CSCC[C@@H]1NC(=O)[C@H](Cc2c[nH]c3ccccc23)NC(=O)[C@@H](NC(=O)[C@H](CCSC)NC(=O)[C@H](Cc2ccc(OS(=O)(=O)O)cc2)NC(=O)[C@@H](N)CC(=O)O)CNC(=O)CNC(=O)[C@H](CCCCNCc2ccccc2)NC(=O)[C@H](CC(=O)O)NC1=O` (H-D[sY]M[Dap]WMD[X4]G; lactam 4-C) had an IC50 of 24.7 µM. On to `CSCC[C@@H]1NC(=O)[C@H](Cc2c[nH]c3ccccc23)NC(=O)[C@@H](NC(=O)[C@H](CCSC)NC(=O)[C@H](Cc2ccc(OS(=O)(=O)O)cc2)NC(=O)[C@@H](N)CC(=O)O)CNC(=O)[C@H](C)NC(=O)[C@H](Cc2ccccc2)NC(=O)[C@H](CC(=O)O)NC1=O` (H-D[sY]M[Dap]WMDFA; lactam 4-C), for which the IC50 is > 1000 µM. `CSCC[C@@H]1NC(=O)[C@H](Cc2c[nH]c3ccccc23)NC(=O)[C@@H](NC(=O)[C@H](CCSC)NC(=O)[C@H](Cc2ccc(OS(=O)(=O)O)cc2)NC(=O)[C@@H](N)CC(=O)O)CNC(=O)[C@H](CCCCN)NC(=O)[C@H](Cc2ccccc2)NC(=O)[C@H](CC(=O)O)NC1=O` (H-D[sY]M[Dap]WMDFK; lactam 4-C) yielded an IC50 of 15 µM.

As for `CSCC[C@@H]1NC(=O)[C@H](Cc2c[nH]c3ccccc23)NC(=O)[C@@H](NC(=O)[C@H](CCSC)NC(=O)[C@H](Cc2ccc(OS(=O)(=O)O)cc2)NC(=O)[C@@H](N)CC(=O)O)CNC(=O)CNC(=O)[C@H](C)NC(=O)[C@H](CC(=O)O)NC1=O` (H-D[sY]M[Dap]WMDAG; lactam 4-C), the IC50 was 7.2 µM. On the same count and under the same terms, the figure for `CSCC[C@@H]1NC(=O)[C@H](Cc2c[nH]c3ccccc23)NC(=O)[C@@H](NC(=O)[C@H](CCSC)NC(=O)[C@H](Cc2ccc(OS(=O)(=O)O)cc2)NC(=O)[C@@H](N)CC(=O)O)CNC(=O)CNC(=O)[C@H](CCNCc2ccccc2)NC(=O)[C@H](CC(=O)O)NC1=O` (H-D[sY]M[Dap]WMD[X3]G; lactam 4-C) is 6.94 µM; for `CSCC[C@@H]1NC(=O)[C@H](Cc2c[nH]c3ccccc23)NC(=O)[C@@H](NC(=O)[C@H](CCSC)NC(=O)[C@H](Cc2ccc(OS(=O)(=O)O)cc2)NC(=O)[C@@H](N)CC(=O)O)CNC(=O)CNC(=O)[C@H](CNCc2ccccc2)NC(=O)[C@H](CC(=O)O)NC1=O` (H-D[sY]M[Dap]WMD[X2]G; lactam 4-C) it is 7.46 µM.

Staying with this test, now noted: a-431.
Consider `CSCC[C@H](NC(=O)[C@H](Cc1ccc(O)cc1)NC(=O)[C@H](CC(=O)O)NC(=O)CNC(=O)CC[C@@H](C(=O)O)N(CCN(CC(=O)O)CC(=O)O)CCN(CC(=O)O)CC(=O)O)C(=O)NCC(=O)N[C@@H](Cc1c[nH]c2ccccc12)C(=O)N[C@@H](CCSC)C(=O)N[C@@H](CC(=O)O)C(=O)N[C@@H](Cc1ccccc1)C(N)=O`, for which the IC50 turned out to be 0.032 µM.

The record behind these values is ChEMBL document CHEMBL1149620, “Synthesis and biological evaluation of cyclic and branched peptide analogues as ligands for cholecystokinin type 1 receptor” (Bioorg Med Chem, 2007).
